Marks after values point to notes of the source that are not given here.
How the values were obtained:
[1] = Phase 1 mass-balance study, [14C]bictegravir metabolite profiling in plasma, urine and feces; conditions: for % of administered dose in feces: feces pooled per individual subject, 0 to 144 hours postdose, average of 8 subjects; for % of plasma AUC0-72 h of total radioactivity: human plasma, AUC pool 0-72 h, single oral 100 mg [14C]bictegravir; for % of administered dose in urine: human urine pooled 0 to 96 hours postdose
From the text: A total of eight patents were enrolled. Subjects were healthy male nonsmokers, 18 to 45 years of age, inclusive, with a body mass index (BMI) from 19 to 30 kg/m2, inclusive, normal 12-lead electrocardiogram (ECG), normal renal function, no significant medical history, and in good general health, as determined by the investigator at the screening evaluation performed no more than 28 days prior to the scheduled first dose.
Treatment involved a single, oral dose followed by a 6- to 21-day sample collection period, the exact duration of which was based on recovery of radiolabeled drug. […] Following administration, the dosing container was rinsed twice, each rinse with approximately 50 mL of cranberry juice, and administered to the subject. The entire study drug solution and cranberry juice rinse (total of approximately 140 mL) was taken within a 10 minute window. […]
Urine: Metabolite profiling and quantitation in urine was performed with samples pooled for individual subjects within the period of 0 to 96 hours postdose.
Feces: Metabolite profiling and quantitation in feces was performed with the feces samples pooled for individual subjects.
Metabolite Quantitation: LC-Radio-chromatograms of the pooled plasma, urine, and feces samples were obtained.

[2] = target: T1, multidrug-resistance protein 2 (MRP2; ABCC2) (Homo sapiens, UniProt Q92887); assay: in vitro; assay type: biochemical
T1 construct: host or cells: membrane vesicle preparations
T1 sequence (Q92887 whole entry): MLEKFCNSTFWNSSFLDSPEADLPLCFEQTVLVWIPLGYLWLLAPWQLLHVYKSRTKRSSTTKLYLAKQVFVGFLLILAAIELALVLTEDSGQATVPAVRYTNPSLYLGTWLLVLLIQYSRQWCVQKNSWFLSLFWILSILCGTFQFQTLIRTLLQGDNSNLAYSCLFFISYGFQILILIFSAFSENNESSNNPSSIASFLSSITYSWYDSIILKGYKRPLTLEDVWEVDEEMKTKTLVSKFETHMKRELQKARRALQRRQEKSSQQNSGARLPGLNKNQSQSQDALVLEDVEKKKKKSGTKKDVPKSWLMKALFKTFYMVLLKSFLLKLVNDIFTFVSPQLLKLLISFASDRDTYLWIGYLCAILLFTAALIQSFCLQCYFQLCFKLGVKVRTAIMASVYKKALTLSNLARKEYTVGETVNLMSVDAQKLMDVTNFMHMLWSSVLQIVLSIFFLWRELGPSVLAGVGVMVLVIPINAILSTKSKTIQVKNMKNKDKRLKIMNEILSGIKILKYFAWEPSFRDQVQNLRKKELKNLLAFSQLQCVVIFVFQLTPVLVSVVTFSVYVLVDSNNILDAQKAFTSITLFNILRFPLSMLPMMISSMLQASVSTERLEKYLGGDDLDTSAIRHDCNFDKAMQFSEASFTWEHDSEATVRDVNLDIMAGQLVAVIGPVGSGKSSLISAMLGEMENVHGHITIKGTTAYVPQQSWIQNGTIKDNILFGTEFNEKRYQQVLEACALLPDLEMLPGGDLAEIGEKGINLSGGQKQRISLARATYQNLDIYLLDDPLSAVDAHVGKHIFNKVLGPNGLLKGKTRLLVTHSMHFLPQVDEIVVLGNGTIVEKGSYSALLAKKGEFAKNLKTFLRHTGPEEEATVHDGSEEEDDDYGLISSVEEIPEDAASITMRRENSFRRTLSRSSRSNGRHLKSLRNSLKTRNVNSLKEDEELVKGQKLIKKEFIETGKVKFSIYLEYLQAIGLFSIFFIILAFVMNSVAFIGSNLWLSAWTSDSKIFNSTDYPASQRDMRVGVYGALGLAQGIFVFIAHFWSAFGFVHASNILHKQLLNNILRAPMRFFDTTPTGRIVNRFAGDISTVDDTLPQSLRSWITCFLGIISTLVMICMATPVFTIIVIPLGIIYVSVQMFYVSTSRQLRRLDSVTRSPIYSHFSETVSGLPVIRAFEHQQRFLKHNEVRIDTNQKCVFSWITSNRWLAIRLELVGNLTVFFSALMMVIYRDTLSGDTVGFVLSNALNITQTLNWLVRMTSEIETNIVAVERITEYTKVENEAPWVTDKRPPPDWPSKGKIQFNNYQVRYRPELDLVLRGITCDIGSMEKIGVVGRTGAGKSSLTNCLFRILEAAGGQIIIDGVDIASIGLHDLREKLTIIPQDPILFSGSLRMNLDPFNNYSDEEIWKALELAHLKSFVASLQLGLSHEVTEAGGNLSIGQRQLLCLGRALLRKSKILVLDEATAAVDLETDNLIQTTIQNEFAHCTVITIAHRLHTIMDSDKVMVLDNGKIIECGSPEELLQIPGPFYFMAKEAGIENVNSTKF
Experimental: (§1) Cells and experimental conditions for the transporter inhibition assays are summarized below in Table 7. […] M15, M20, and M23 were prepared according to the procedures described herein. All other materials were purchased by SOLVO Biotechnology and experiments were conducted according to SOLVO Standard Operating Procedures (SOPs) of its certified ISO 9001:2008 system. Lot and product information was recorded by SOLVO Biotechnology.
(§2) Test compounds and positive control was incubated with membrane vesicle preparations (total protein: 50 μg/well) and the model substrate in the absence or presence of ATP. Reaction mixtures were preincubated for 15 minutes at 37° C. Reactions were started by the addition of 25 μL of 12 mM MgATP or AMP assay buffer (for background controls) preincubated separately. Reactions were stopped after 5 min by the addition of 200 μL of ice-cold washing buffer and immediate filtration via glass fiber filters mounted to a 96-well plate (filter plate). The filters were washed, dried and the amount of substrate inside the filtered vesicles determined by liquid scintillation. A positive control inhibitor was tested in parallel. Control membranes lacking transporter expression were used as negative control. All assays were performed in duplicate.
(§3) Fractional transport activities were calculated from the following equation: Activity %=(A−B)/(C−D)×100 where A is translocated amount of substrate in the presence of TA and ATP, B is translocated amount of substrate in the presence of TA, C is translocated amount of substrate in the presence of solvent and ATP, and D is translocated amount of substrate in the presence of solvent. IC50 Determination in Transporter Assays
(§4) IC50 is defined as the test article concentration needed to inhibit the maximal transporter specific transport by 50%. IC50 values were calculated using non-linear fitting of % inhibition versus concentration to a sigmoidal curve with a variable Hill Coefficient using GraphPad Prism 5 (GraphPad Software Inc., San Diego, Calif.). If the % inhibition was less than 50% at the highest concentration tested, the IC50 was not determined. No inhibition observed (NIO) is reported for relative inhibition results <20% and no concentration dependent transport observed up to the highest concentration tested.

[3] = In vivo BIC metabolism, plasma profile after oral [14C]BIC, monkey; parameters: species or system Cynomolgus Monkey; conditions: monkeys, 0 to 72 hours post dose, ND = not detected
From the text: Metabolic pathways included hydroxylation, oxidative defluorination, direct glucuronidation, and oxidation followed by phase II conjugation. In the monkey, BIC was metabolized through the oxidative pathways to a greater extent compared to rat and human.

OATP1B1 = target: T2, OATP1B1 (Homo sapiens, UniProt Q9Y6L6); assay: OATP1B1 inhibition assay using 3H-E217βG as probe substrate, HEK293FT cells; assay type: cell-based; parameters: expressed in transfected cells; conditions: for IC50 (μM): NIO = no interaction observed
T2 sequence (Q9Y6L6 1-691): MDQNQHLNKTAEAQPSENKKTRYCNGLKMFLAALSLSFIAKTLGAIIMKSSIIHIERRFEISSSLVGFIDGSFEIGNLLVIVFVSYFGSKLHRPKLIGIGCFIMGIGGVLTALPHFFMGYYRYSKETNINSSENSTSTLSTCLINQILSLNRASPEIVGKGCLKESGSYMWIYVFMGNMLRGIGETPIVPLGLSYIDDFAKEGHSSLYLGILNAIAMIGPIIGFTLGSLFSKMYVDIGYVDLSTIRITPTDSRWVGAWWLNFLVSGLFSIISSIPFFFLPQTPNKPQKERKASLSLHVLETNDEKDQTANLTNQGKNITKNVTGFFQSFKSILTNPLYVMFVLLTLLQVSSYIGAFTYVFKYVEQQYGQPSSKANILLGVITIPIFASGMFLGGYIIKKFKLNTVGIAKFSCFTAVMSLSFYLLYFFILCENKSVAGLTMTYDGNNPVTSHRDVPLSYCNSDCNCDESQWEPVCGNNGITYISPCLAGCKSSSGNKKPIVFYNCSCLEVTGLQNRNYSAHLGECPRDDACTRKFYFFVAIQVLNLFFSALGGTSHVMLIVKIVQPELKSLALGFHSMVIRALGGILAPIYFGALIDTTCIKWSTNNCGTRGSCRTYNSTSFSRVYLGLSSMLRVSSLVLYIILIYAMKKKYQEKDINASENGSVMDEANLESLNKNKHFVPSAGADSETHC
Experimental: HEK293FT-Mock and OATP-transfected cells (1×10^5 cells each) were seeded 24 hr prior to assay. Pre-rinsed ells were incubated for 3 minutes with 1 μM ^3H-E217βG in HK buffer in the presence of various concentrations of test compound or positive control rifampicin. After the experiment cells were rinsed with Krebs-Henseleit buffer and lysed with 0.1 M NaOH. The amount of substrate inside the cells was determined by liquid scintillation reader.
Percent inhibition was calculated according to the following equation: % inhibition=[1−{[OATP]i−[WT]ni}/{[OATP]ni−[WT]ni}]*100 where: [OATP]i represent the substrate accumulation in the presence of test compound for either OATP1B1, OATP1B3, or OATP2B1 cells; [OATP]ni represents the substrate accumulation in the absence of test compound for either OATP1B1, OATP1B3, or OATP2B1 cells, respectively; and [WT]ni represents the substrate accumulation in the absence of test compound for wild type cells or Mock cells, respectively. IC50 Determination in Transporter Assays
IC50 was determined according to the procedures described in Example 5. […] Results are reported as NIO (no interaction observed).

MRP2 (ABCC2) = target: T3, MRP2 (ABCC2) (Homo sapiens, UniProt Q92887); assay: in vitro; assay type: biochemical; conditions: human
T3 construct: host or cells: membrane vesicle preparations
T3 sequence (Q92887 whole entry): as the sequence (Q92887 whole entry) above
Experimental: as §1, §2, §3, §4

Row | SMILES | % of administered dose in feces [1] [%] | % of plasma AUC0-72 h of total radioactivity [1] | % of plasma AUC0-72 h of total radioactivity ([1]; listed as [^14C]Bictegravir) [%] | % of plasma AUC0-72 h of total radioactivity ([1]; listed as [^14C]bictegravir) | % of administered dose in urine [1] [%] | IC50 (μM) [2] | % of Total Radioactivity in AUC Pooled Plasma [3] [%] | IC50 (μM) (OATP1B1) | inhibition at 5 min, 300 µM (MRP2 (ABCC2)) [%] | IC50 [2] [µM] | Maximum inhibition at highest test conc. (% of control) (OATP1B1; at 100 μM) | inhibition at 3 min, 100 µM (OATP1B1; human, HEK293FT cells transfected with OATP1B1, probe 3H-E217βG (1 μM), at 100 μM, read-out: Maximum inhibition at highest test conc. (% of control)) [%] | inhibition at 5 min, 100 µM (MRP2 (ABCC2)) [%]
1 | O=C(NCc1c(F)cc(F)cc1F)c1cn2c(c(O)c1=O)C(=O)N1[C@H]3CC[C@H](C3)O[C@@H]1C2 [BIC, bictegravir, reference compound] | 30.6 | 67.9% | 67.9 | approximately 67.9% | 3.6 | NIO | 80.2 | NIO | – | – | – | – | –
2 | O=C(NCc1c(F)cc(F)cc1F)c1cn2c(c(O[C@@H]3O[C@H](C(=O)O)[C@@H](O)[C@H](O)[C@H]3O)c1=O)C(=O)N1[C@H]3CC[C@H](C3)O[C@@H]1C2 [Metabolite M15] | – | 8.6% | – | – | 21.4 | – | 0.55 | – | 53 | 256 | – | – | –
3 | O=C(NCc1c(F)cc(F)c(OS(=O)(=O)O)c1F)c1cn2c(c(O)c1=O)C(=O)N1C(C2)O[C@@H]2CC[C@H]1C2 (stereo partly drawn) [Metabolite M20] | – | 20.1% | – | – | – | – | 0.77 | NIO* | 98 | 45 | no dose dependent inhibition | 12 | –
4 | O=C(NCc1c(F)cc(F)c(O)c1F)c1cn2c(c(O)c1=O)C(=O)N1[C@H]3CC[C@H](C3)O[C@@H]1C2 [Metabolite M23] | 3.6 | 0.2^c % | – | – | – | – | – | – | – | > 100 | – | – | 43

Source: patent publication US11253524B2 (Gilead Sciences, Inc., priority 2018, dated 2022)
